As a reminder, the EC50 is the concentration needed to bring the measured effect to its halfway point.

For this assay, the target named is T1, human GPR40 (Homo sapiens, UniProt O14842).
T1 construct: expressed in transfected cells
T1 sequence (O14842 whole entry): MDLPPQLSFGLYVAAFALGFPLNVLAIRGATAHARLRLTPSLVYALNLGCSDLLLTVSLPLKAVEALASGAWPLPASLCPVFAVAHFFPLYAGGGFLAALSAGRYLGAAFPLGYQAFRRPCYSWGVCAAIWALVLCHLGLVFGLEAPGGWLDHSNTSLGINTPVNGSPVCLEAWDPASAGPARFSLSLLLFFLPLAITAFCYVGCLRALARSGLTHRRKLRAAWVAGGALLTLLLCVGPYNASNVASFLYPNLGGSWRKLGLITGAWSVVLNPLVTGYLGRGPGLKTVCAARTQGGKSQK
Nature of the assay: Ca2+ mobilization (FLIPR) in a stable GPR40-expressing cell; GPR40 agonist activity. In kind it is cell-based. The conditions noted are these: compound concentration corresponding to 50% PosiC, 100% = intracellular calcium level induced by 80 μM palmitic acid. As for the experimental part: Evaluation of effect of test compounds on Ca^2+ mobilization by using a stable GPR40-expressing cell A stable human GPR40-expressing HEK293 cell was used. A cell suspension was prepared such that the above-mentioned cells were present at 6×10^5 cells/mL in a cell culture medium (D-MEM (Nikken Bio Medical Laboratory) supplemented with 10% (v/v) fetal bovine serum (Biowest) and 1% (v/v) penicillin-streptomycin solution (Invitrogen)). The cell suspension was plated in a 384-well plate (poly-D-lysine coated plate; Falcon) in a volume of 25 μl/well, and the plate was incubated at 37° C. in an atmosphere of 5% CO2 overnight. Each test compound was added to the cell at each concentration as below, and then the change in intracellular calcium level was measured by FLIPR^TETRA (Molecular Devices). Before the FLIPR assay, the following preparative solutions were prepared. First, an assay buffer was prepared for use in the preparation of a fluorescent dye solution and a diluent buffer solution. The assay buffer was prepared by adding 1M HEPES solution (Invitrogen) to Hanks' Balanced Salt Solution (Invitrogen), followed by adjusting the pH to 7.4 with 1M NaOH (Nacalai Tesque). Next, the fluorescent dye solution and the diluent buffer solution were prepared. The fluorescent dye solution was prepared in accordance with the instruction manual attached to Fluo-4NW calcium assay kit (Invitrogen), followed by addition of bovine serum albumin (Sigma) to a final concentration of 0.1% (w/v). The diluent buffer solution was prepared by adding bovine serum albumin (Sigma) to the assay buffer to give a final concentration of 0.1% (w/v). After removing a medium supernatant from the cell culture plate incubated overnight, the fluorescent dye solution was added to the plate in a volume of 25 μl/well. The plate was incubated at 37° C. in an atmosphere of 5% CO2 for 90 minutes to promote the fluorescent dye uptake in the cell. Meanwhile, the test compounds (i.e., the compounds prepared in Examples) dissolved in dimethyl sulfoxide (DMSO; Nacalai Tesque) were diluted with the diluent buffer solution, to prepare each compound solution at each concentration. In addition, a palmitic acid solution was prepared as a positive control solution (hereinafter abbreviated as PosiC). A 40 μl aliquot of each sample solution prepared as above was added to each well of a 384-well polypropylene plate to prepare a compound plate. Finally, after the sufficient uptake of the fluorescent dye in the cell, the cell plate and the compound plate were set to FLIPR^TETRA. After the above pretreatment, the change in intracellular calcium level was measured by FLIPR^TETRA upon addition of 25 μl of each test compound solution at each concentration. The GPR40 agonist activity of each test compound at each concentration was determined as a relative activity level (% PosiC) with the intracellular calcium level induced by 80 μM palmitic acid (a GPR40 agonist) set to 100%. Next, each compound concentration corresponding to 50% PosiC was calculated based on the % PosiC value, to compare between agonist activities of the test compounds. In the tables, “++++” indicates 0.01 μM or more but less than 0.1 μM, “+++” indicates 0.1 μM or more but less than 1 μM, “++” indicates 1 μM or more but less than 10 μM, and “+” indicates 10 μM or more for 50% posiC value. In the tables, “N.T.” indicates “not tested”.
On the technique in general: Calcium assays in cells follow changes in intracellular calcium, usually with a dye or a luminescent sensor.
As to `CC#C[C@@H](CC(=O)O)c1ccc(OCC2CCCC3(C=CCCC3(C)C)C2)cc1` (mixture of isomers) [Example 19, (3S)-3-[4-(11,11-dimethyl-spiro[5.5]undec-7-en-2-ylmethoxy)-phenyl]-hex-4-ynoic acid], the EC50 fell in the range of 10 to 100 nM.

On to `O=C(O)CCc1ccc(OCC2CCC3(CCCCCC3)C2)cc1` (racemic) [Example 21, 3-[4-(spiro[4.6]undec-2-ylmethoxy)-phenyl]-propionic acid], for which the EC50 is at least 10000 nM.

For the compound `CC#C[C@@H](CC(=O)O)c1ccc(OCC2CCCC3(CCCCC3)C2)cc1` (mixture of isomers) [Example 28, (3S)-3-[4-(spiro[5.5]undec-2-ylmethoxy)-phenyl]-hex-4-ynoic acid], the EC50 lay within 10 to 100 nM.

For `CC#C[C@@H](CC(=O)O)c1ccc(OCC2CCC3(CCCC3)C2)cc1` (mixture of isomers) [Example 30, (3S)-3-[4-(spiro[4.4]non-2-ylmethoxy)-phenyl]-hex-4-ynoic acid], the EC50 lay within 100 to 1000 nM.

In the case of `Cn1nnnc1C(CC(=O)O)c1ccc(OCC2CCCC3(CCCCC3)C2)cc1` (racemic) [Example 40, 3-(1-methyl-1H-tetrazol-5-yl)-3-[4-(spiro[5.5]undec-2-ylmethoxy)-phenyl]-propionic acid], the EC50 was in the range of 10 to 100 nM.

With `CCOC(CC(=O)O)c1ccc(OCC2=CC3(CCCCC3)CCC2)cc1` (racemic) [Example 41, 3-ethoxy-3-[4-(spiro[5.5]undec-1-en-2-ylmethoxy)-phenyl]-propionic acid], the EC50 lay in the range of 10 to 100 nM.

As for `O=C(O)CCc1ccc(OCC2CCCC3(CCCCC3)C2)cc1` (racemic) [Example 46, 3-[4-(spiro[5.5]undec-2-ylmethoxy)-phenyl]-propionic acid], the EC50 is 1000 to 10000 nM.

`CC#CC(CC(=O)O)c1ccc(OCC2CCCC3(CCCCC3)C2)cc1` (racemic) [Example 47, 3-[4-(spiro[5.5]undec-2-ylmethoxy)-phenyl]-hex-4-ynoic acid]: the EC50 lay in the range of 100 to 1000 nM.

Regarding `CC1(C)CCCC2(CCCC(COc3ccc(CCC(=O)O)cc3)C2)C1` (racemic) [Example 48, 3-[4-(8,8-dimethyl-spiro[5.5]undec-2-ylmethoxy)-phenyl]-propionic acid], the EC50 was in the range of 1000 to 10000 nM.

Regarding `O=C(O)CCc1ccc(OCC2CCCC3(CCCCCC3)C2)cc1` (racemic) [Example 49, 3-[4-(spiro[5.6]dodec-2-ylmethoxy)-phenyl]-propionic acid], the EC50 is 1000 to 10000 nM.

As for `CC1=CCCC(C)C12CCCC(COc1ccc(CCC(=O)O)cc1)C2` (racemic) [Example 50, 3-[4-(7,11-dimethyl-spiro[5.5]undec-7-en-2-ylmethoxy)-phenyl]-propionic acid], the EC50 was in the range of 100 to 1000 nM.

Regarding `CC1CCCC(C)C12CCCC(COc1ccc(CCC(=O)O)cc1)C2` (racemic) [Example 51, 3-[4-(7,11-dimethyl-spiro[5.5]undec-2-ylmethoxy)-phenyl]-propionic acid], the EC50 is 1000 to 10000 nM.

Turning to `O=C(O)CCc1ccc(OCC2CCC3(CCCCC3)C2)cc1` (racemic) [Example 52, 3-[4-(spiro[4.5]dec-2-ylmethoxy)-phenyl]-propionic acid], the EC50 was in the range of 1000 to 10000 nM.

For the compound `CC1(C)C=CC2(CCCC(COc3ccc(CCC(=O)O)cc3)C2)CC1` (racemic) [Example 53, 3-[4-(9,9-dimethyl-spiro[5.5]undec-7-en-2-ylmethoxy)-phenyl]-propionic acid], the EC50 lay within 1000 to 10000 nM.

In the case of `CC1(C)CCC2(CCCC(COc3ccc(CCC(=O)O)cc3)C2)CC1` (racemic) [Example 54, 3-[4-(9,9-dimethyl-spiro[5.5]undec-2-ylmethoxy)-phenyl]-propionic acid], the half-maximal effective concentration (EC50) lay within 1000 to 10000 nM.

Regarding `CC1(C)CCC=CC12CCCC(COc1ccc(CCC(=O)O)cc1)C2` (racemic) [Example 55, 3-[4-(11,11-dimethyl-spiro[5.5]undec-7-en-2-ylmethoxy)-phenyl]-propionic acid], the EC50 fell in the range of 100 to 1000 nM.

As to `CC1(C)CCCCC12CCCC(COc1ccc(CCC(=O)O)cc1)C2` (racemic) [Example 56, 3-[4-(7,7-dimethyl-spiro[5.5]undec-2-ylmethoxy)-phenyl]-propionic acid], the EC50 was 1000 to 10000 nM.

Turning to `CC#C[C@H](CC(=O)O)c1ccc(OCC2CCCC3(CCCCC3)C2)cc1` (mixture of isomers) [Example 58, (3R)-3-[4-(spiro[5.5]undec-2-ylmethoxy)-phenyl]-hex-4-ynoic acid], the EC50 lay in the range of 1000 to 10000 nM.

`CN(C)C(=O)C(CC(=O)O)c1ccc(OCC2CCCC3(CCCCC3)C2)cc1` (racemic) [Example 59, N,N-dimethyl-3-[4-(spiro[5.5]undec-2-ylmethoxy)-phenyl]-succinamic acid]: the EC50 is 100 to 1000 nM.

For the compound `O=C(O)CC(c1ccccc1)c1ccc(OCC2CCCC3(CCCCC3)C2)cc1` (racemic) [Example 60, 3-phenyl-3-[4-(spiro[5.5]undec-2-ylmethoxy)-phenyl]-propionic acid], the EC50 fell in the range of 1000 to 10000 nM.

`O=C(O)CCc1ccc(OC2CCCC3(CCCCC3)C2)cc1` (racemic) [Example 61, 3-[4-(spiro[5.5]undec-2-yloxy)-phenyl]-propionic acid]: the EC50 was at least 10000 nM.

As to `O=C(O)CCc1ccc(OCCC2CCCC3(CCCCC3)C2)cc1` (racemic) [Example 62, 3-[4-(2-spiro[5.5]undec-2-yl-ethoxy)-phenyl]-propionic acid], the EC50 is at least 10000 nM.

As to `CC#C[C@@H](CC(=O)O)c1ccc(OC2CCCC3(CCCCC3)C2)cc1` (mixture of isomers) [Example 64, (3S)-3-[4-(spiro[5.5]undec-2-yloxy)-phenyl]-hex-4-ynoic acid], the EC50 lay within 100 to 1000 nM.

Regarding `CNC(=O)C(CC(=O)O)c1ccc(OCC2CCCC3(CCCCC3)C2)cc1` (racemic) [Example 65, N-methyl-3-[4-(spiro[5.5]undec-2-ylmethoxy)-phenyl]-succinamic acid], the EC50 fell in the range of 1000 to 10000 nM.

For the compound `O=C(O)CC(c1ccc(OCC2CCCC3(CCCCC3)C2)cc1)c1ncco1` (racemic) [Example 66, 3-oxazol-2-yl-3-[4-(spiro[5.5]undec-2-ylmethoxy)-phenyl]-propionic acid], the EC50 lay within 100 to 1000 nM.

As to `O=C1NC(=O)C(Cc2ccc(OCC3CCCC4(CCCCC4)C3)cc2)S1` (racemic) [Example 67, 5-[4-(spiro[5.5]undec-2-ylmethoxy)-benzyl]-thiazolidine-2,4-dione], the EC50 is at least 10000 nM.

As for `CC#C[C@H](c1ccc(OCC2CCCC3(CCCCC3)C2)cc1)C1SC(=O)NC1=O` (mixture of isomers) [Example 68, 5-{(1S)-1-[4-(spiro[5.5]undec-2-ylmethoxy)-phenyl]-but-2-ynyl}-thiazolidine-2,4-dione], the concentration for a half-maximal effect (EC50) lay within 1000 to 10000 nM.

In the case of `O=C(O)CC(CO)c1ccc(OCC2CCCC3(CCCCC3)C2)cc1` (racemic) [Example 69, 4-hydroxy-3-[4-(spiro[5.5]undec-2-ylmethoxy)-phenyl]-butyric acid], the EC50 lay within 1000 to 10000 nM.

As to `CC#C[C@@H](CC(=O)O)c1ccc(OCC2CCCC3(CCCCC3)C2O)cc1` (mixture of isomers) [Example 70, (3S)-3-[4-(1-hydroxy-spiro[5.5]undec-2-ylmethoxy)-phenyl]-hex-4-ynoic acid], the EC50 was 100 to 1000 nM.

As to `COCC(CC(=O)O)c1ccc(OCC2CCCC3(CCCCC3)C2)cc1` (racemic) [Example 71, 4-methoxy-3-[4-(spiro[5.5]undec-2-ylmethoxy)-phenyl]-butyric acid], the concentration giving a half-maximal response (EC50) was 1000 to 10000 nM.

As to `CC#C[C@@H](CC(=O)O)c1ccc(OCC2CCCCC23CCCCC3)cc1` (mixture of isomers) [Example 72, (3S)-3-[4-(spiro[5.5]undec-1-ylmethoxy)-phenyl]-hex-4-ynoic acid], the EC50 lay in the range of 1000 to 10000 nM.

On to `CCOC(CC(=O)O)c1ccc(OCC2CCCC3(CCCCC3)C2)cc1` (racemic) [Example 75, 3-ethoxy-3-[4-(spiro[5.5]undec-2-ylmethoxy)-phenyl]-propionic acid], for which the 50% effective concentration (EC50) fell in the range of 100 to 1000 nM.

Turning to `C/C=C\[C@@H](CC(=O)O)c1ccc(OCC2CCCC3(CCCCC3)C2)cc1` (mixture of isomers) [Example 77, (Z)-(3R)-3-[4-(spiro[5.5]undec-2-ylmethoxy)-phenyl]-hex-4-enoic acid], the EC50 is 100 to 1000 nM.

The record behind these values is patent US8299296B2, “Spiro compounds and pharmaceutical use thereof” (Japan Tobacco Inc., priority 2007, dated 2012).
